From patent EP4603105A1, “PHARMACEUTICAL COMPOSITION CONTAINING CYCLIC COMPOUND HAVING SELECTIVE KRAS INHIBITORY EFFECT AGAINST HRAS AND NRAS” (CHUGAI SEIYAKU KABUSHIKI KAISHA, priority 2022, dated 2024)
*1 amine or outer side, *2 acyl side, *3 side chain or, on linkers, in order; H or OH if unused. Where a SMILES comes first, the peptide text is derived from it. Bridges are numbered along the chain shown (N, C = ends). [ ]: non-standard residue; d: D form. The star is where a group is joined. hPhe(3-Cl-4-CF3) = N[C@@H](CCc1ccc(C(F)(F)F)c(Cl)c1)C(=O)O; NPrPhe(4-CF3) = CCCN[C@@H](Cc1ccc(C(F)(F)F)cc1)C(=O)O; NEtAsp = CCN([C@@H](CC(=O)[*:3])C(=O)[*:2])[*:1]; NMeGly(cPent) = CN[C@H](C(=O)O)C1CCCC1; NMeD = CN[C@@H](CC(=O)O)C(=O)O; NMeL = CN[C@@H](CC(C)C)C(=O)O; Morpholide = C1CN(*)CCO1; Ac5c = NC1(C(=O)O)CCCC1; NEtG = CCNCC(=O)O; Sar = CNCC(=O)O

Legend:
[1] = system: human lung cancer strain NCI-H441; assay type: cell-based
Summary of the method: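 Readout: […] after the ATP-based reagent. Compound: serial dilutions in dimethyl sulfoxide.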

HRAS wild-type protein = HRAS wild-type protein (Homo sapiens, UniProt P01112); assay: Binding to HRAS by surface plasmon resonance (SPR), KD and KD ratio to KRAS; conditions: ratio of the KD value with respect to HRAS wild-type protein to the KD value with respect to KRAS
Summary of the method: (§1)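 GDP-bound biotin-Avi RAS captured at ~100–300 RU, 30°C, pH 7.4 HBS containing 10 µM GDP, 10 mM MgCl2, 1 mM DTT, 0.01% Tween 20 and 4% DMSO. KD by 1:1 fitting.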

[2] = target: GDP-bound NRAS wild-type protein (Homo sapiens, UniProt P01111); assay: Binding to NRAS by surface plasmon resonance (SPR), KD and KD ratio to KRAS; conditions: ratio of the KD value with respect to GDP-bound NRAS wild-type protein to the KD value with respect to KRAS
Summary of the method: as §1

HRAS wild-type protein, sequence (P01112 whole entry): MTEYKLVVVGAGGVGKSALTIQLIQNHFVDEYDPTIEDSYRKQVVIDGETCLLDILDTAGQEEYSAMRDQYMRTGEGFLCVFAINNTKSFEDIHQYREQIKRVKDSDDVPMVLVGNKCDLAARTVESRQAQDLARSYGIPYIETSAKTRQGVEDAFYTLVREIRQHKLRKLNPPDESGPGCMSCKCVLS
GDP-bound NRAS wild-type protein, sequence (P01111 whole entry): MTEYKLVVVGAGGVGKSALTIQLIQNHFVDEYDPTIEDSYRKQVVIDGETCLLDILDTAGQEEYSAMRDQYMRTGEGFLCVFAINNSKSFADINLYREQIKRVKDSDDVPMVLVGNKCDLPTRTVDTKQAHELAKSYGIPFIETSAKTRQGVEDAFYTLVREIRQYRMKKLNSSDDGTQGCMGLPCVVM

Compound | IC50 [1] | HRAS /KRAS (HRAS wild-type protein) | NRAS /KRAS [2]
CCCN1C(=O)CN(C)C(=O)CNC(=O)[C@H]([C@@H](C)CC)NC(=O)[C@H](CC(C)C)N(C)C(=O)C[C@@H](C(=O)N2CCOCC2)N(C)C(=O)[C@H](C2CCCC2)N(C)C(=O)C2(CCCC2)NC(=O)[C@@H]2CCCN2C(=O)[C@H](CCc2ccc(C(F)(F)F)c(Cl)c2)NC(=O)CN(CC)C(=O)[C@@H]1Cc1ccc(C(F)(F)F)cc1 [PP1969] ([NMeL]IG[Sar][NPrPhe(4-CF3)][NEtG][hPhe(3-Cl-4-CF3)]P[Ac5c][NMeGly(cPent)][NMeD]-Morpholide; lactam N-11) | 74 nM | C (A compound having a KD ratio of 0.1 or more and less than 3 is denoted as C) | B (a compound having 3 or more and less than 10 is denoted as B)
CCCN1C(=O)CN(C)C(=O)CNC(=O)[C@H]([C@@H](C)CC)NC(=O)[C@H](CC(C)C)N(C)C(=O)C[C@@H](C(=O)N2CCOCC2)N(CC)C(=O)[C@H](C2CCCC2)N(C)C(=O)C2(CCCC2)NC(=O)[C@@H]2CCCN2C(=O)[C@H](CCc2ccc(C(F)(F)F)c(Cl)c2)NC(=O)CN(C)C(=O)[C@@H]1Cc1ccc(C(F)(F)F)cc1 [PP1970] ([NMeL]IG[Sar][NPrPhe(4-CF3)][Sar][hPhe(3-Cl-4-CF3)]P[Ac5c][NMeGly(cPent)][NEtAsp]-Morpholide; lactam N-11) | 16.8 nM | B (a compound having 3 or more and less than 10 is denoted as B) | B (a compound having 3 or more and less than 10 is denoted as B)
CCCN1C(=O)CN(C)C(=O)[C@H](C)NC(=O)[C@H]([C@@H](C)CC)NC(=O)[C@H](CC(C)C)N(C)C(=O)C[C@@H](C(=O)N2CCOCC2)N(C)C(=O)[C@H](C2CCCC2)N(C)C(=O)C2(CCCC2)NC(=O)[C@@H]2CCCN2C(=O)[C@H](CCc2ccc(C(F)(F)F)c(Cl)c2)NC(=O)CN(C)C(=O)[C@@H]1Cc1ccc(C(F)(F)F)cc1 [PP1971] ([NMeL]IA[Sar][NPrPhe(4-CF3)][Sar][hPhe(3-Cl-4-CF3)]P[Ac5c][NMeGly(cPent)][NMeD]-Morpholide; lactam N-11) | 38 nM | B (a compound having 3 or more and less than 10 is denoted as B) | B (a compound having 3 or more and less than 10 is denoted as B)
CC[C@H](C)[C@@H]1NC(=O)[C@H](CCOC)N(C)C(=O)C[C@@H](C(=O)N(C)CC)N(C)C(=O)[C@H](C2CCCC2)N(C)C(=O)C2(CC(C)(C)C2)NC(=O)[C@@H]2C[C@H](C)CN2C(=O)[C@H](CCc2cc(F)c(C(F)(F)F)c(F)c2)NC(=O)CN(C)C(=O)[C@H](Cc2ccc(C(F)(F)F)cc2)N2CC/C=C\C[C@@H](C2=O)N(C)C(=O)CN(C)C1=O [PP1972] | 13.2 nM | A (a compound having 10 or more and less than 20 is denoted as A) | A (a compound having 10 or more and less than 20 is denoted as A)
CCCOC[C@H]1C(=O)N[C@@H]([C@@H](C)CC)C(=O)N(C)CC(=O)N(C)[C@H]2C/C=C\CCN(C2=O)[C@@H](Cc2ccc(C(F)(F)F)cc2)C(=O)N(C)CC(=O)N[C@@H](CCc2ccc(C(F)(F)F)c(OC)c2)C(=O)N2C[C@H](OCC)C[C@H]2C(=O)NC2(CC(C)(C)C2)C(=O)N(C)[C@@H](C2CCCC2)C(=O)N(C)[C@H](C(=O)N(C)CC)CC(=O)N1C [PP1973] | 8.7 nM | B (a compound having 3 or more and less than 10 is denoted as B) | A (a compound having 10 or more and less than 20 is denoted as A)
CCCN(C)C(=O)[C@@H]1CC(=O)N(C)[C@@H](CCOC)C(=O)N[C@@H]([C@@H](C)CC)C(=O)N(C)CC(=O)N(C)[C@H]2C/C=C\CCN(C2=O)[C@@H](Cc2ccc(C(F)(F)F)cc2)C(=O)N(C)CC(=O)N[C@@H](CCc2cc(F)c(C(F)(F)F)c(F)c2)C(=O)N2C[C@@H](C)C[C@H]2C(=O)NC2(CC(C)(C)C2)C(=O)N(C)[C@@H](C2CCCC2)C(=O)N1C [PP1974] | 50 nM | A (a compound having 10 or more and less than 20 is denoted as A) | A (a compound having 10 or more and less than 20 is denoted as A)
CCCN(C)C(=O)[C@@H]1CC(=O)N(C)[C@@H](CCOC)C(=O)N[C@@H]([C@@H](C)CC)C(=O)N(C)CC(=O)N(C)[C@H]2C/C=C\CCN(C2=O)[C@@H](Cc2ccc(C(F)(F)F)cc2)C(=O)N(C)CC(=O)N[C@@H](CCc2ccc(C(F)(F)F)c(OC)c2)C(=O)N2C[C@H](OCC)C[C@H]2C(=O)NC2(CC(C)(C)C2)C(=O)N(C)[C@@H](C2CCCC2)C(=O)N1C [PP1975] | 13.4 nM | A (a compound having 10 or more and less than 20 is denoted as A) | A (a compound having 10 or more and less than 20 is denoted as A)
CC[C@H](C)[C@@H]1NC(=O)[C@H](C(C)C)N(C)C(=O)C[C@@H](C(=O)N(C)CC)N(C)C(=O)[C@H](C2CCCC2)N(C)C(=O)C2(CC(C)(C)C2)NC(=O)[C@@H]2C[C@H](C)CN2C(=O)[C@H](CCc2cc(F)c(C(F)(F)F)c(F)c2)NC(=O)CN(C)C(=O)[C@H](Cc2ccc(C(F)(F)F)cc2)N2CC/C=C\C[C@@H](C2=O)N(C)C(=O)CN(C)C1=O [PP1976] | 92 nM | A (a compound having 10 or more and less than 20 is denoted as A) | AA (a compound having 20 or more is denoted as AA)
CCO[C@@H]1C[C@H]2C(=O)NC3(CC(C)(C)C3)C(=O)N(C)[C@@H](C3CCCC3)C(=O)N(C)[C@H](C(=O)N(C)CC)CC(=O)N(C)[C@@H](C(C)C)C(=O)N[C@@H]([C@@H](C)CC)C(=O)N(C)CC(=O)N(C)[C@H]3C/C=C\CCN(C3=O)[C@@H](Cc3ccc(C(F)(F)F)cc3)C(=O)N(C)CC(=O)N[C@@H](CCc3ccc(C(F)(F)F)c(OC)c3)C(=O)N2C1 [PP1977] | 20.2 nM | A (a compound having 10 or more and less than 20 is denoted as A) | AA (a compound having 20 or more is denoted as AA)
CCO[C@@H]1C[C@H]2C(=O)NC3(CC(C)(C)C3)C(=O)N(C)[C@@H](C3CCCC3)C(=O)N(C)[C@H](C(=O)N(C)C)CC(=O)N(C)[C@@H](C(C)C)C(=O)N[C@@H]([C@@H](C)CC)C(=O)N(C)CC(=O)N(C)[C@H]3C/C=C\CCN(C3=O)[C@@H](Cc3ccc(C(F)(F)F)cc3)C(=O)N(C)CC(=O)N[C@@H](CCc3ccc(C(F)(F)F)c(OC)c3)C(=O)N2C1 [PP1979] | 12.5 nM | A (a compound having 10 or more and less than 20 is denoted as A) | AA (a compound having 20 or more is denoted as AA)
CCO[C@@H]1C[C@H]2C(=O)NC3(CC(C)(C)C3)C(=O)N(C)[C@@H](C3CCCC3)C(=O)N(C)[C@H](C(=O)N(C)CC)CC(=O)N(C)[C@@H](C3CC3)C(=O)N[C@@H]([C@@H](C)CC)C(=O)N(C)CC(=O)N(C)[C@H]3C/C=C\CCN(C3=O)[C@@H](Cc3ccc(C(F)(F)F)cc3)C(=O)N(C)CC(=O)N[C@@H](CCc3ccc(C(F)(F)F)c(OC)c3)C(=O)N2C1 [PP1981] | 20.7 nM | A (a compound having 10 or more and less than 20 is denoted as A) | A (a compound having 10 or more and less than 20 is denoted as A)
CCCN(C)C(=O)[C@@H]1CC(=O)N(C)[C@@H](C2CC2)C(=O)N[C@@H]([C@@H](C)CC)C(=O)N(C)CC(=O)N(C)[C@H]2C/C=C\CCN(C2=O)[C@@H](Cc2ccc(C(F)(F)F)cc2)C(=O)N(C)CC(=O)N[C@@H](CCc2ccc(C(F)(F)F)c(OC)c2)C(=O)N2C[C@H](OCC)C[C@H]2C(=O)NC2(CC(C)(C)C2)C(=O)N(C)[C@@H](C2CCCC2)C(=O)N1C [PP1983] | 20.2 nM | A (a compound having 10 or more and less than 20 is denoted as A) | AA (a compound having 20 or more is denoted as AA)
CC[C@H](C)[C@@H]1NC(=O)[C@H](C2CCC2)N(C)C(=O)C[C@@H](C(=O)N(C)CC)N(C)C(=O)[C@H](C2CCCC2)N(C)C(=O)C2(CC(C)(C)C2)NC(=O)[C@@H]2C[C@H](C)CN2C(=O)[C@H](CCc2cc(F)c(C(F)(F)F)c(F)c2)NC(=O)CN(C)C(=O)[C@H](Cc2ccc(C(F)(F)F)cc2)N2CC/C=C\C[C@@H](C2=O)N(C)C(=O)CN(C)C1=O [PP1984] | 50.8 nM | A (a compound having 10 or more and less than 20 is denoted as A) | A (a compound having 10 or more and less than 20 is denoted as A)
CCO[C@@H]1C[C@H]2C(=O)NC3(CC(C)(C)C3)C(=O)N(C)[C@@H](C3CCCC3)C(=O)N(C)[C@H](C(=O)N(C)C)CC(=O)N(C)[C@@H](C3CCC3)C(=O)N[C@@H]([C@@H](C)CC)C(=O)N(C)CC(=O)N(C)[C@H]3C/C=C\CCN(C3=O)[C@@H](Cc3ccc(C(F)(F)F)cc3)C(=O)N(C)CC(=O)N[C@@H](CCc3ccc(C(F)(F)F)c(OC)c3)C(=O)N2C1 [PP1987] | 6.6 nM | A (a compound having 10 or more and less than 20 is denoted as A) | A (a compound having 10 or more and less than 20 is denoted as A)
